{
  "source": "ChEMBL document CHEMBL1240295",
  "about": "“Specificity and mechanism of action of some commonly used protein kinase inhibitors” (Biochem J, 2000)",
  "key": {"[1]": {"assay": "Inhibition of PHK from rabbit skeletal muscle", "format": "tissue-based, Oryctolagus cuniculus, Muscle tissue"}, "[2]": {"assay": "Inhibition of bovine heart PKA", "set-up": "species or system Bos taurus"}, "[3]": {"species_on_record": "Oryctolagus cuniculus", "settings": "at 10 µM", "description": "Inhibition of rabbit MKK1 expressed in Escherichia coli at 10 uM"}, "[4]": {"target": "Mitogen-activated protein kinase 1 (Homo sapiens) (UniProt P28482)", "sequence (P28482 whole entry)": "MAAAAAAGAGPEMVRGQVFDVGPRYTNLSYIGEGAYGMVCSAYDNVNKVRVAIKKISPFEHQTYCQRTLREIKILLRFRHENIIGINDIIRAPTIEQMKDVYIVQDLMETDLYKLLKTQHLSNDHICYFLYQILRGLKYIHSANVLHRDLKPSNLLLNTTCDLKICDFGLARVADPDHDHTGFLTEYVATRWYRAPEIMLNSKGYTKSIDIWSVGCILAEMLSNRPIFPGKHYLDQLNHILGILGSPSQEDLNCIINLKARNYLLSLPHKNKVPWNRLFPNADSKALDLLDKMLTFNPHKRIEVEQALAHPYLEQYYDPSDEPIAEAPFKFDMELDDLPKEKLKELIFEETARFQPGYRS", "settings": "at 10 µM", "description": "Inhibition of Gst-tagged human MAPK2/ERK2 expressed in Escherichia coli at 10 uM"}, "[5]": {"target": "Mitogen-activated protein kinase 8 (Homo sapiens) (UniProt P45983)", "sequence (P45983 whole entry)": "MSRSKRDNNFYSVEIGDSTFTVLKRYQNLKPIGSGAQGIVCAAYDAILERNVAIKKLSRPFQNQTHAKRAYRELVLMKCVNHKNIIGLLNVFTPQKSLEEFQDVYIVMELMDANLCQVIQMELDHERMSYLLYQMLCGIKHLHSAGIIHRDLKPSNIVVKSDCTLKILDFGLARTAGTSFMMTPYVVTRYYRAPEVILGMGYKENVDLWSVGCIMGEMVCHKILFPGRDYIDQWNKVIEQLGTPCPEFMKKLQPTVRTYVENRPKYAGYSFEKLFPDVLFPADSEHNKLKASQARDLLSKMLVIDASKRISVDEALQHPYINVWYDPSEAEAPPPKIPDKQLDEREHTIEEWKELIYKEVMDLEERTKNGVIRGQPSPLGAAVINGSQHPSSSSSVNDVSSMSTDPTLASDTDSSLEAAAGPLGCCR", "settings": "at 10 µM", "description": "Inhibition of Gst-tagged human JNK1a1 expressed in Escherichia coli at 10 uM"}, "[6]": {"target": "Mitogen-activated protein kinase 14 (Homo sapiens) (UniProt Q16539)", "sequence (Q16539 whole entry)": "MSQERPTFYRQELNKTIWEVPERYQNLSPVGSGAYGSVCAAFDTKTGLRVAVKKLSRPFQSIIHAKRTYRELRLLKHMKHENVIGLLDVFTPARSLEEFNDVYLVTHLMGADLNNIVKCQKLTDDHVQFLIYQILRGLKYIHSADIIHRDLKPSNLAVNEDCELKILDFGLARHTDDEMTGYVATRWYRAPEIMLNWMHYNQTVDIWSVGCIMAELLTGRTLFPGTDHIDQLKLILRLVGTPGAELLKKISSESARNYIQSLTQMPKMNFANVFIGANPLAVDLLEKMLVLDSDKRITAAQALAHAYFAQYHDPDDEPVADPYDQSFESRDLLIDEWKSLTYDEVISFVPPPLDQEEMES", "settings": "at 10 µM", "description": "Inhibition of Gst-tagged human SAPK2a/p38 expressed in Escherichia coli at 10 uM"}, "[7]": {"target": "Mitogen-activated protein kinase 11 (Homo sapiens) (UniProt Q15759)", "sequence (Q15759 whole entry)": "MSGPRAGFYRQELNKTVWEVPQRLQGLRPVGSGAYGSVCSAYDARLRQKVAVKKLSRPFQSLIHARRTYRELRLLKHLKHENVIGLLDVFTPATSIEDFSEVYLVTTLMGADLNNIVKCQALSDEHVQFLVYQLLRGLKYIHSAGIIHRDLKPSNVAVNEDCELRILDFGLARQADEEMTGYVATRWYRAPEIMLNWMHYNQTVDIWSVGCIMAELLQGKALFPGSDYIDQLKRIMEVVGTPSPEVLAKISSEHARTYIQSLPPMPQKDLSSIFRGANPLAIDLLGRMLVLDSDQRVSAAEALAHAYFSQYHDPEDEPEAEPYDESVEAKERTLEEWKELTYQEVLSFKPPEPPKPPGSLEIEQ", "settings": "at 10 µM", "description": "Inhibition of Gst-tagged human SAPK2b/p38--beta-2 expressed in Escherichia coli at 10 uM"}, "[8]": {"target": "T1, Mitogen-activated protein kinase 12 (Homo sapiens) (UniProt P53778)", "T1 sequence (whole entry)": "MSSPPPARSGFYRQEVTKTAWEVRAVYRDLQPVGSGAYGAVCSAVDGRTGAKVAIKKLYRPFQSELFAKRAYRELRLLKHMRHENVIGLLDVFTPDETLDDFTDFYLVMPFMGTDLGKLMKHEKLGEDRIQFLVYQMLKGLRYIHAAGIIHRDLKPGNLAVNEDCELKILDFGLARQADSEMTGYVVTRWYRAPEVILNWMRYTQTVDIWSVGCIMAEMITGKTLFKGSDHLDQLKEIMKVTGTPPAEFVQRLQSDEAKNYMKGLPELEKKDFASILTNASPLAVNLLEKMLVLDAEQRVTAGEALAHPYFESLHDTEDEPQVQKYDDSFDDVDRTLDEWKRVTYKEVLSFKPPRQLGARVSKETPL", "settings": "at 10 µM", "description": "Inhibition of Gst-tagged human SAPK3/p38gamma expressed in Escherichia coli at 10 uM"}, "[9]": {"target": "T2, Mitogen-activated protein kinase 13 (Homo sapiens) (UniProt O15264)", "T2 sequence (whole entry)": "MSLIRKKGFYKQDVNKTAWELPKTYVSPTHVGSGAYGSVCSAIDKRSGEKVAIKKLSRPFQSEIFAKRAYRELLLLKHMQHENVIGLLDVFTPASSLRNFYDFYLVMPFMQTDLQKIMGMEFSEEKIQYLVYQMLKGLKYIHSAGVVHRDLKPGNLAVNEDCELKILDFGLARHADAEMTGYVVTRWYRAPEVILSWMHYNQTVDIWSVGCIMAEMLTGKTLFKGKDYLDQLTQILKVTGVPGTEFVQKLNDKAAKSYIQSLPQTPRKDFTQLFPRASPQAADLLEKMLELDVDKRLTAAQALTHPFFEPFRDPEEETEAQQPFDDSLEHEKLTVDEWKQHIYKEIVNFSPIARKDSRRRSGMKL", "settings": "at 10 µM", "description": "Inhibition of Gst-tagged human SAPK4/p38delta expressed in Escherichia coli at 10 uM"}, "[10]": {"species_on_record": "Oryctolagus cuniculus", "settings": "Muscle tissue, at 10 µM", "description": "Inhibition of MAPKAPK1b from rabbit skeletal muscle at 10 uM"}, "[11]": {"target": "MAP kinase-activated protein kinase 2 (Homo sapiens, UniProt P49137)", "settings": "at 10 µM", "description": "Inhibition of Gst-tagged human MAPKAPK2 expressed in Escherichia coli at 10 uM"}, "[12]": {"target": "Ribosomal protein S6 kinase alpha-5 (Homo sapiens, UniProt O75582)", "settings": "Sf9, at 10 µM", "description": "Inhibition of His-tagged human MSK1 expressed in Sf9 cells at 10 uM"}, "[13]": {"target": "T3, MAP kinase-activated protein kinase 5 (Homo sapiens) (UniProt Q8IW41)", "T3 sequence (whole entry)": "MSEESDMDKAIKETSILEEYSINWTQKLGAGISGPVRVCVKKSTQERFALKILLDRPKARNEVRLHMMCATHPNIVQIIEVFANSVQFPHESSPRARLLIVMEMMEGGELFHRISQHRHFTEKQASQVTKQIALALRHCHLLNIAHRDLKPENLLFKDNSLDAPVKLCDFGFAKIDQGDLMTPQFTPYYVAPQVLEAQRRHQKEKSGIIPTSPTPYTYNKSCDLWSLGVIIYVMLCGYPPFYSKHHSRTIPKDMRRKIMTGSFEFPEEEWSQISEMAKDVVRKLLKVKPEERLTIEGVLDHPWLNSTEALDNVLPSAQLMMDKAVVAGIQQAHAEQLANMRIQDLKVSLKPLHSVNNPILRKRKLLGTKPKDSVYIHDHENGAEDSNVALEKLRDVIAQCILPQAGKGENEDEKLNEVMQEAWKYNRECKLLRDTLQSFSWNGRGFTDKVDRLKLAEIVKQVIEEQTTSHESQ", "settings": "Sf9, at 10 µM", "description": "Inhibition of His-tagged human PRAK expressed in Sf9 cells at 10 uM"}, "[14]": {"species_on_record": "Bos taurus", "settings": "at 10 µM", "description": "Inhibition of bovine heart PKA at 10 uM"}, "[15]": {"target": "Protein kinase C alpha type (Homo sapiens, UniProt P17252)", "settings": "at 10 µM", "description": "Inhibition of His-tagged human PKCalpha expressed in Escherichia coli at 10 uM"}, "[16]": {"target": "3-phosphoinositide-dependent protein kinase 1 (Homo sapiens) (UniProt O15530)", "sequence (O15530 whole entry, looked up)": "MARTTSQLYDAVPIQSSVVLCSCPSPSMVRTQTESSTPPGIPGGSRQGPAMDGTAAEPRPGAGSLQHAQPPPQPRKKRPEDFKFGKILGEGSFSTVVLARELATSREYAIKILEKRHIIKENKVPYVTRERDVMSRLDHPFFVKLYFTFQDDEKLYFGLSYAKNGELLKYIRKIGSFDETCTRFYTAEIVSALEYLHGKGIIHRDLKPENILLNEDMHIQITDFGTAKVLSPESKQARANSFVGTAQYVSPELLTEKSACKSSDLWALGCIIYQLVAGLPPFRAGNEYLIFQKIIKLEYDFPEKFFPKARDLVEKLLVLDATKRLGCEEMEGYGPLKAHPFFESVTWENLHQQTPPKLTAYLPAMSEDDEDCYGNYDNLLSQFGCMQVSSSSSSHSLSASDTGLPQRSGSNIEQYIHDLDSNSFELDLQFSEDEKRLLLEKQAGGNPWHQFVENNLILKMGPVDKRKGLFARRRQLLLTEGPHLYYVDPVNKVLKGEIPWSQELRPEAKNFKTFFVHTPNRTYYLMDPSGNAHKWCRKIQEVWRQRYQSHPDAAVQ", "settings": "Sf21, at 10 µM"}, "[17]": {"target": "RAC-alpha serine/threonine-protein kinase (Homo sapiens) (UniProt P31749)", "sequence (P31749 whole entry)": "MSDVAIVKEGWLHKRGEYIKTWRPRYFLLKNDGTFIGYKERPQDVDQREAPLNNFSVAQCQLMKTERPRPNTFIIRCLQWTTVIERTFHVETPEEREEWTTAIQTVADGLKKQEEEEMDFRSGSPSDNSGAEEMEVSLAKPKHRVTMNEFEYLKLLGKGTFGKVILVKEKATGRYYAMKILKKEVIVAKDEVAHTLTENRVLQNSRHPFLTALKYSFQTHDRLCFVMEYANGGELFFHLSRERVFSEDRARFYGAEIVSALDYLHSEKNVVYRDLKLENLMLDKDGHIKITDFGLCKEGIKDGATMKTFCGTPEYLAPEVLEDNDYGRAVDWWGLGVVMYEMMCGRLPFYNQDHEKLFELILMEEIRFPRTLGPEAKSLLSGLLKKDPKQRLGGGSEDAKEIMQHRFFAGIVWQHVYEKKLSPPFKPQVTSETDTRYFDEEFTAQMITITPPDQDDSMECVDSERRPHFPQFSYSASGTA", "settings": "Sf9, at 10 µM", "description": "Inhibition of human PKBalpha expressed in SF9 cells at 10 uM"}, "[18]": {"target": "T4, Serine/threonine-protein kinase Sgk1 (Homo sapiens) (UniProt O00141)", "T4 sequence (whole entry)": "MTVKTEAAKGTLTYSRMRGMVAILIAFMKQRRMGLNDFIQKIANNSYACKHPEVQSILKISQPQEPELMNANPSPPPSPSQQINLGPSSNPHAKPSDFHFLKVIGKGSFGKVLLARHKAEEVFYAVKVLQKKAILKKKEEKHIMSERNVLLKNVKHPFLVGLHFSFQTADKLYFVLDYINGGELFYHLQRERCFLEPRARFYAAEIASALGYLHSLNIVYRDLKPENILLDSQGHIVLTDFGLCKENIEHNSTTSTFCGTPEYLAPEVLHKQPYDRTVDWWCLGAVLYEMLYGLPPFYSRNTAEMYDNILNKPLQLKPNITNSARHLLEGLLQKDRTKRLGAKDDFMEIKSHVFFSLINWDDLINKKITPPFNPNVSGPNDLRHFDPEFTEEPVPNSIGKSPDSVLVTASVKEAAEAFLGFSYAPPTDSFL", "settings": "Sf9, at 10 µM", "description": "Inhibition of His-tagged human SGK expressed in Sf9 cells at 10 uM"}, "[19]": {"target": "Ribosomal protein S6 kinase beta-1 (Homo sapiens, UniProt P23443)", "sequence (P23443 whole entry, looked up)": "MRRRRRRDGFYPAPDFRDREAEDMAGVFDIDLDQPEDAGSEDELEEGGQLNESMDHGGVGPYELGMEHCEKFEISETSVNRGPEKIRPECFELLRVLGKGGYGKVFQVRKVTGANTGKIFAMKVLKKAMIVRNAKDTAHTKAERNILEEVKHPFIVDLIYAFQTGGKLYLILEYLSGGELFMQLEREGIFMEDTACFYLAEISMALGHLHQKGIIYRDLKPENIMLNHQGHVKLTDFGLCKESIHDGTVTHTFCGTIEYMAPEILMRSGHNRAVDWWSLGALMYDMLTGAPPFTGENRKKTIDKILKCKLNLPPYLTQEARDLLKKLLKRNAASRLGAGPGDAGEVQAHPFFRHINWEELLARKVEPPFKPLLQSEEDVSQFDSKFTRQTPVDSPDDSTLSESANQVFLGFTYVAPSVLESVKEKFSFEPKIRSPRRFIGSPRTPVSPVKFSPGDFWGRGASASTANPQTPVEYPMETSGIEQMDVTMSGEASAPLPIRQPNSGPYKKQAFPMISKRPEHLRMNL", "settings": "at 10 µM", "description": "Inhibition of His-tagged human S6K1 expressed in Escherichia coli at 10 uM"}, "[20]": {"target": "Glycogen synthase kinase-3 beta (Homo sapiens, UniProt P49841)", "settings": "Sf21, at 10 µM", "description": "Inhibition of His-tagged human GSK3b expressed in Sf21 cells at 10 uM"}, "[21]": {"target": "Rho-associated protein kinase 2 (Rattus norvegicus) (UniProt Q62868)", "sequence (Q62868 whole entry, looked up)": "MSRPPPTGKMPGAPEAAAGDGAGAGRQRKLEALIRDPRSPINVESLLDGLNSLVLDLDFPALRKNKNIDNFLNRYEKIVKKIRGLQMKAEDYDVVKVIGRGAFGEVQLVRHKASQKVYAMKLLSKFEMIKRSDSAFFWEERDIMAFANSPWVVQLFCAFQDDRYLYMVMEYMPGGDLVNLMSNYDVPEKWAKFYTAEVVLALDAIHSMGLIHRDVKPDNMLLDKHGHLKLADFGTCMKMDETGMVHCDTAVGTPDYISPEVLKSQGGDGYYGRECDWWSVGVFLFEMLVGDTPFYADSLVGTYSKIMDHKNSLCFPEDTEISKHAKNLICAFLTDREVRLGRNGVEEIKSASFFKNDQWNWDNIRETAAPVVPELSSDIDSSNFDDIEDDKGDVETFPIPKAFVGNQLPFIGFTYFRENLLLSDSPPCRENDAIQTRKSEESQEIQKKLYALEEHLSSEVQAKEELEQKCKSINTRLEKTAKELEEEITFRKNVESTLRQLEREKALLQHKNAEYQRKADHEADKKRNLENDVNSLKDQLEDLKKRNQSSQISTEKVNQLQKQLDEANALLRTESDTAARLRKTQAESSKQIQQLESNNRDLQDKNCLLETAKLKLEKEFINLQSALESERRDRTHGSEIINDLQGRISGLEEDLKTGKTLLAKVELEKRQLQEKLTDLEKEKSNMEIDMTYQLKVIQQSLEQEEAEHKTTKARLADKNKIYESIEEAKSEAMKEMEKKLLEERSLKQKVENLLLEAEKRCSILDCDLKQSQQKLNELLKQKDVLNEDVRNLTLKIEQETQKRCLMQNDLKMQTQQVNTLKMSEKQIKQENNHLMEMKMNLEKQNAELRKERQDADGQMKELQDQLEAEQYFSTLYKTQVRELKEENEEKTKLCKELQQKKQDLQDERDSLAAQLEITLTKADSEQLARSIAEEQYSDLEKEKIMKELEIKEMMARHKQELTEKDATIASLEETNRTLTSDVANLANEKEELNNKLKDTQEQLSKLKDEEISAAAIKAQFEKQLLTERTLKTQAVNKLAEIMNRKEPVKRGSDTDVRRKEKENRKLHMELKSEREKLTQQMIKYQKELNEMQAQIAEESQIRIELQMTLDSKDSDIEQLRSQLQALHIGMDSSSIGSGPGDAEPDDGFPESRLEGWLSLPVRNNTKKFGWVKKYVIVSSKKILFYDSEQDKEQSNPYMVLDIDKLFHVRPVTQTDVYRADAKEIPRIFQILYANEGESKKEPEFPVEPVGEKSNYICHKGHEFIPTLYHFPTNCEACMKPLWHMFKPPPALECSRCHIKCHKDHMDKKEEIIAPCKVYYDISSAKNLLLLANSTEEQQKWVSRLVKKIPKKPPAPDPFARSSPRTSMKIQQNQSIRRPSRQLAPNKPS", "settings": "Sf9, at 10 µM", "description": "Inhibition of rat ROCK2 expressed in Sf9 cells at 10 uM"}, "[22]": {"species_on_record": "Rattus norvegicus", "settings": "at 10 µM", "description": "Inhibition of rat liver AMPK at 10 uM"}, "[23]": {"target": "Casein kinase II (Homo sapiens) (UniProt P67870+P68400+P19784)", "settings": "Sf9, at 10 µM", "description": "Inhibition of His-tagged human CK2 expressed in Sf9 cells at 10 uM"}, "[24]": {"species_on_record": "Oryctolagus cuniculus", "settings": "Muscle tissue, at 10 µM", "remark": "listed apart in the source", "description": "Inhibition of PHK from rabbit skeletal muscle at 10 uM"}, "[25]": {"target": "Tyrosine-protein kinase Lck (Homo sapiens) (UniProt P06239)", "sequence (P06239 2-509 limits assumed)": "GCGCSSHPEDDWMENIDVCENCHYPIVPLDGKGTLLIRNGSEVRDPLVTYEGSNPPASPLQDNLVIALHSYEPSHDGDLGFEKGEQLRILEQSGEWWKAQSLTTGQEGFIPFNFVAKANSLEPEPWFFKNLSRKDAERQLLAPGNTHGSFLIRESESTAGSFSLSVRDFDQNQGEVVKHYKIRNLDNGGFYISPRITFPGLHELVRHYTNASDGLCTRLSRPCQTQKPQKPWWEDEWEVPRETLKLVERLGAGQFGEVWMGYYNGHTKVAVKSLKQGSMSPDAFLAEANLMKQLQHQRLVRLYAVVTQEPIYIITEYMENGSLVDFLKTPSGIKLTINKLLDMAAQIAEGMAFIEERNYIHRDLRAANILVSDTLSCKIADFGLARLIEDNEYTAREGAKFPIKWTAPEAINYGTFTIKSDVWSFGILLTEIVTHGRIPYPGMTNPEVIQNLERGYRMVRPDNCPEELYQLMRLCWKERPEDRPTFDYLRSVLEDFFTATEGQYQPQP", "settings": "Sf9, at 10 µM", "description": "Inhibition of His-tagged human LCK expressed in Sf9 cells at 10 uM"}, "[26]": {"target": "T5, Serine/threonine-protein kinase Chk1 (Homo sapiens) (UniProt O14757)", "T5 sequence (whole entry)": "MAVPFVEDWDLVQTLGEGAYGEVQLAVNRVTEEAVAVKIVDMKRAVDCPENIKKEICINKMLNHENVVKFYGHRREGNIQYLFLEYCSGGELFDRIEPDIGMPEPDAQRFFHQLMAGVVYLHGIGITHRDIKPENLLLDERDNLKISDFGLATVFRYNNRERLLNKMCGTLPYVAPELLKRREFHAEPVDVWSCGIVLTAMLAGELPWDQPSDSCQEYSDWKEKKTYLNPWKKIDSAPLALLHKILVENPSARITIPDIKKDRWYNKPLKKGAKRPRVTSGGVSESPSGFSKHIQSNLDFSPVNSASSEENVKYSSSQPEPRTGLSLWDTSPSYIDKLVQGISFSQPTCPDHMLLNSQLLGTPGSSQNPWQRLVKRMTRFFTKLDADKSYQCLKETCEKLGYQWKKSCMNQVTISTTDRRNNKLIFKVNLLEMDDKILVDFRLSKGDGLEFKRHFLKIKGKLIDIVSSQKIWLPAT", "settings": "at 10 µM", "description": "Inhibition of His-tagged human CHK1 expressed in Escherichia coli at 10 uM"}},
  "data": [
    {"smiles": "CCCCCCOC(=O)[C@@]1(O)C[C@H]2O[C@]1(C)n1c3ccccc3c3c4c(c5c6ccccc6n2c5c31)C(=O)NC4", "values": [
      {"measurement": "IC50", "setting": "[1]", "result": 0.011, "unit": "µM"},
      {"measurement": "IC50", "setting": "[2]", "result": 3.3, "unit": "µM"},
      {"measurement": "residual activity", "setting": "[3]", "result": 20, "unit": "%"},
      {"measurement": "residual activity", "setting": "[4]", "result": 57, "unit": "%"},
      {"measurement": "residual activity", "setting": "[5]", "result": 81, "unit": "%"},
      {"measurement": "residual activity", "setting": "[6]", "result": 103, "unit": "%"},
      {"measurement": "residual activity", "setting": "[7]", "result": 98, "unit": "%"},
      {"measurement": "residual activity", "setting": "[8]", "result": 95, "unit": "%"},
      {"measurement": "residual activity", "setting": "[9]", "result": 95, "unit": "%"},
      {"measurement": "level, % of control", "setting": "[10]", "result": 23, "unit": "%"},
      {"measurement": "residual activity", "setting": "[11]", "result": 62, "unit": "%"},
      {"measurement": "residual activity", "setting": "[12]", "result": 39, "unit": "%"},
      {"measurement": "residual activity", "setting": "[13]", "result": 58, "unit": "%"},
      {"measurement": "residual activity", "setting": "[14]", "result": 39, "unit": "%"},
      {"measurement": "residual activity", "setting": "[15]", "result": 87, "unit": "%"},
      {"measurement": "residual activity", "setting": "[16]", "result": 7, "unit": "%"},
      {"measurement": "residual activity", "setting": "[17]", "result": 36, "unit": "%"},
      {"measurement": "residual activity", "setting": "[18]", "result": 29, "unit": "%"},
      {"measurement": "residual activity", "setting": "[19]", "result": 66, "unit": "%"},
      {"measurement": "residual activity", "setting": "[20]", "result": 39, "unit": "%"},
      {"measurement": "residual activity", "setting": "[21]", "result": 84, "unit": "%"},
      {"measurement": "residual activity", "setting": "[22]", "result": 22, "unit": "%"},
      {"measurement": "residual activity", "setting": "[23]", "result": 95, "unit": "%"},
      {"measurement": "level, % of control", "setting": "[24]", "result": 0, "unit": "%"},
      {"measurement": "residual activity", "setting": "[25]", "result": 46, "unit": "%"},
      {"measurement": "residual activity", "setting": "[26]", "result": 13, "unit": "%"}
    ]}
  ]
}
